Data taken from US20090069237A1, “METHODS AND COMPOSITIONS FOR TREATING CONDITIONS” (priority 2007, published 2009).
Blank lines part the entries; values can stand above or below the molecule they belong to. Peptide text beside a SMILES is read from it.

Experiments:
[1] = type: physicochemical
Experimental: The test article was SEQ ID NO: 1, a white powder, which was delivered in 0.9% saline. The test article formulations were prepared on the day of study and kept at room temperature until dosing. 100 mg/kg at 1 mL/kg=100 mg/mL 1.4 mL of saline added to 141.5 mg of test article, soluble.

[2] = rat, in vivo
From the text: Pain is basically managed by two classes of drugs.

[3] = system: Pseudomonas syringae pv tomato, DC3000; test: Arabidopsis inoculated with virulent pathogen Pst DC3000, disease symptoms; type: in vivo, Arabidopsis ecotype Columbia (Col-0); conditions: 20 μl salicylic acid 1 mM and 20 μl SEQ ID NO: 15 applied together to the leaves
Experimental: Seeds of Arabidopsis ecotype Columbia (Col-0) were planted in potting soil. Plants were cultivated in a growth chamber with 10-h d (200 μmol m^−2s^−1 at 22° C.) and 14-h night (18° C.) cycles and 80% RH. Once a week plants were supplied with water and modified one-half strength Hoagland nutrient solution: 2 mM KNO 5 mM Ca(NO3)2 and trace elements, pH 7.
A virulent plant pathogen, Pst Pseudomonas syringae pv tomato, DC3000 was grown at 28° C. on King's medium B containing 40 mg/L tetracycline. Plants were inoculated with 1×10^7 cfu/ml of the pathogen in 0.01% Silwet L77 (v/v) (a surfactant) and distilled water 5 weeks after sowing. The bacterial suspension or a control solution (0.01% Silwet L77 in water) was then sprayed on the plant once.
Disease symptoms in Arabidopsis are water-soaked, spreading lesions, sometimes surrounded by chlorotic margin that eventually lead to yield loss and plant death.
To test the efficacy of SEQ ID NO: 15, some healthy and some disease plants were sprayed with salicylic acid in 0.01%. Silwet L77; some healthy and some disease plants were sprayed with SEQ ID NO: 15 in 0.01%. Silwet L77, and some healthy and some disease plants were sprayed with salicylic acid in combination with SEQ ID NO: 15 in 0.01%. Silwet L77. A control group of some healthy and some disease plants were sprayed with water in 0.01%. Silwet L77. […]

[4] = system: Sauromatum guttatum appendix; test: Heat production by Sauromatum guttatum appendix sections, thermocouple recording; conditions: second experiment, up to 50 μM, data not shown
Experimental: In one example, using Sauromatum guttatum as the experimental module, on the day of inflorescence-opening, the Sauromatum appendix (a 20-40 cm-long, slender organ) becomes warm reaching a 32° C. temperature (Skubatz et al., 1991, Plant Physiol. 95:1084-1088). The heat generated by the appendix is generated by the mitochondria. This mitochondrial activity can be triggered by the addition of phenolic compounds, including but not limited to, salicylic acid, aspirin, and 2,6-dihydroxybenzoic acid. Test agents can be applied to the plant and the plant's temperature may be monitored in vivo.
FIG. 4 illustrates modulation of heat generated by aspirin (ASA) in Sauromatum guttatum appendix in the presence of various opioid peptides and the Alzheimer's peptide, Aβ 1-42. One day before heat-production, sections of the appendix were placed in different aqueous solutions containing ASA with or without an opioid peptide. […] Temperature was recorded with thermocouples attached to the section every 5 min. […]
FIG. 5 illustrates modulation of heat generated by salicylic acid (SA) in the presence of human opioid peptides (β-Endorphin, SEQ ID NO: 19 and Neuropeptide AF, SEQ ID NO: 44) and, the Alzheimer's peptide, Aβ 1-42, SEQ ID NO: 49, and, a plant virulent bacterial pathogen (Pst DC3000). […] Temperature was recorded with thermocouples attached to the sections every 5 min. […]

solubility in saline [1]: soluble
Molecule: CC(C)C[C@H](NC(=O)[C@@H](N)Cc1ccccc1)C(=O)N1CCC[C@H]1C(=O)N[C@@H](CO)C(=O)O [SEQ ID NO: 1, Phe-Leu-Pro-Ser] (H-FLPS-OH; N-terminus and C-terminus assumed)
effect on brain function [2]: does not adversely affect brain function
feeding behavior [2]: did not invoke an abnormal feeding behavior

Molecule: O=C(O)c1ccccc1O [salicylic acid]
systemic resistance to the virulent bacteria [3]: enough to trigger systemic resistance

Molecule: FLPSEFGVDVDR [SEQ ID NO: 2]
heat generation by the peptide [4]: did not generate heat

Molecule: YGGFL [SEQ ID NO: 15]
systemic resistance to the virulent bacteria [3]: enough to trigger systemic resistance
